Measurements as given in PubChem BioAssay AID330 (DTP/NCI, 2004).
Inconclusive results and toxic doses are left out. Rule for the calls: active = survival T/C of 150% or more; inactive = T/C below 125% in these data.

Tested on: P388 leukemia ip, CD2F1 mice, survival T/C
Test: NCI In Vivo Anticancer Drug Screen. Data for tumor model P388 Leukemia (intraperitoneal) in CD2F1 (CDF1) mice
Settings: endpoint: median survival time, higher = longer survival
Method in brief: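 Mice carrying the transplanted tumor received test compound or vehicle. Survival was recorded in each group, and the value is the treated-group measurement divided by that of the vehicle-treated control group.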

[1] = dose: 50.0 mg/kg/injection, schedule: Q01DX009 (ip), vehicle: saline
[2] = dose: 100.0 mg/kg/injection, schedule: Q01DX009 (ip), vehicle: saline
[3] = dose: 200.0 mg/kg/injection, schedule: Q01DX009 (ip), vehicle: saline
[4] = dose: 50.0 mg/kg/injection, schedule: Q01DX005 (ip), vehicle: saline with Tween-80
[5] = dose: 100.0 mg/kg/injection, schedule: Q01DX005 (ip), vehicle: saline with Tween-80
[6] = dose: 200.0 mg/kg/injection, schedule: Q01DX005 (ip), vehicle: saline with Tween-80
[7] = dose: 60.0 mg/kg/injection, schedule: Q01DX005 (ip), vehicle: saline with Tween-80
[8] = dose: 120.0 mg/kg/injection, schedule: Q01DX005 (ip), vehicle: saline with Tween-80
[9] = dose: 12.5 mg/kg/injection, schedule: Q01DX009 (ip), vehicle: saline with Tween-80
[10] = dose: 25.0 mg/kg/injection, schedule: Q01DX009 (ip), vehicle: saline with Tween-80
[11] = dose: 50.0 mg/kg/injection, schedule: Q01DX009 (ip), vehicle: saline with Tween-80
[12] = dose: 20.0 mg/kg/injection, schedule: Q01DX009 (ip), vehicle: saline with Tween-80
[13] = dose: 100.0 mg/kg/injection, schedule: Q01DX009 (ip), vehicle: saline with Tween-80
[14] = dose: 200.0 mg/kg/injection, schedule: Q01DX009 (ip), vehicle: saline with Tween-80

Measured: T/C

CC(=O)NC1C(Nc2ccc(S(=O)(=O)Nc3nccc(C)n3)cc2)OC(CO)C(O)C1O (stereo not given)
inactive: dose: 50.0 mg/kg/injection, schedule: Q01DX005 (ip), vehicle: saline 100 % of control | dose: 100.0 mg/kg/injection, schedule: Q01DX005 (ip), vehicle: saline 105 % of control | dose: 200.0 mg/kg/injection, schedule: Q01DX005 (ip), vehicle: saline 92 % of control

CC1(C)CCC2(C(=O)O)CCC3(C)C(=CCC4C5(C)CC(O)C(O)C(C)(C(=O)O)C5CCC43C)C2C1 (stereo not given)
inactive: dose: 1.0 mg/kg/injection, schedule: Q01DX005 (ip), vehicle: saline 96 % of control | dose: 2.03 mg/kg/injection, schedule: Q01DX005 (ip), vehicle: saline 94 % of control | dose: 4.06 mg/kg/injection, schedule: Q01DX005 (ip), vehicle: saline 87 % of control | dose: 8.12 mg/kg/injection, schedule: Q01DX005 (ip), vehicle: saline 90 % of control

O=C(CC(=O)C(F)(F)F)c1cccs1.O=C(CC(=O)C(F)(F)F)c1cccs1.O=C(CC(=O)C(F)(F)F)c1cccs1.[Eu]
inactive: [1] 113 % of control | [2] 106 % of control | [3] 102 % of control

O=C1NC2NC(=O)NC2N1 (stereo not given)
inactive: dose: 100.0 mg/kg/injection, schedule: Q04DX003 (ip), vehicle: Klucel (hydroxypropylcellulose) (HPC) 94 % of control | dose: 200.0 mg/kg/injection, schedule: Q04DX003 (ip), vehicle: Klucel (hydroxypropylcellulose) (HPC) 107 % of control | dose: 400.0 mg/kg/injection, schedule: Q04DX003 (ip), vehicle: Klucel (hydroxypropylcellulose) (HPC) 100 % of control

ClCC1OCCO1
inactive: [1] 116 % of control | [2] 116 % of control

C[Si](C)(C)O[C@@H]1CCCC1NCC#N (stereo not given in full)
inactive: [4] 101 % of control | [5] 101 % of control | [6] 92 % of control

Cc1ccc(S(=O)(=O)OCC2(COCc3ccccc3)CCCCC2=O)cc1 (stereo not given)
inactive: dose: 50.0 mg/kg/injection, schedule: Q01DX009 (ip), vehicle: Klucel (hydroxypropylcellulose) (HPC) 106 % of control | dose: 100.0 mg/kg/injection, schedule: Q01DX009 (ip), vehicle: Klucel (hydroxypropylcellulose) (HPC) 92 % of control | dose: 200.0 mg/kg/injection, schedule: Q01DX009 (ip), vehicle: Klucel (hydroxypropylcellulose) (HPC) 95 % of control

N#CC1[C@@H](C(=O)c2ccccc2)N2C=Cc3ccccc3[C@@H]2[C@H]1C#N (stereo not given in full)
inactive: [7] 90 % of control

O=S1(=O)C=C(c2ccccc2)C(c2ccccc2)=C1
inactive: dose: 12.5 mg/kg/injection, schedule: Q04DX003 (ip), vehicle: saline with Tween-80 100 % of control | dose: 25.0 mg/kg/injection, schedule: Q04DX003 (ip), vehicle: saline with Tween-80 100 % of control | dose: 50.0 mg/kg/injection, schedule: Q04DX003 (ip), vehicle: saline with Tween-80 109 % of control

Clc1ncccc1-n1cccc1/C=N\N=C/c1cccn1-c1cccnc1Cl
inactive: [7] 97 % of control | [8] 89 % of control

Cc1cc(N)c2ccccc2c1O
inactive: [9] 110 % of control | [10] 124 % of control | [11] 108 % of control

CC(C)=CCCC1=C2[C@H](O)C=C(C)C[C@@H]2OC1=O
inactive: [4] 100 % of control | [5] 99 % of control | [6] 101 % of control

C=CCC1(C(C)C(O)c2cc(OC)c(OC)c(OC)c2)CC(O)C=CC12OCCO2 (stereo not given)
inactive: dose: 1.25 mg/kg/injection, schedule: Q01DX005 (ip), vehicle: acid diluted with saline 94 % of control | dose: 2.5 mg/kg/injection, schedule: Q01DX005 (ip), vehicle: acid diluted with saline 103 % of control | dose: 5.0 mg/kg/injection, schedule: Q01DX005 (ip), vehicle: acid diluted with saline 100 % of control | dose: 10.0 mg/kg/injection, schedule: Q01DX005 (ip), vehicle: acid diluted with saline 100 % of control

COc1cc(C(=O)NCCS(=O)(=O)O)cc(OC)c1OC
inactive: [2] 109 % of control | [3] 109 % of control | dose: 400.0 mg/kg/injection, schedule: Q01DX009 (ip), vehicle: saline 105 % of control

COC(=O)C1(N)CCCC1
inactive: dose: 100.0 mg/kg/injection, schedule: Q04DX003 (ip), vehicle: saline 90 % of control | dose: 200.0 mg/kg/injection, schedule: Q04DX003 (ip), vehicle: saline 113 % of control | dose: 400.0 mg/kg/injection, schedule: Q04DX003 (ip), vehicle: saline 109 % of control

CC(O)(CO)C(C)(O)c1cn(O)c(=N)c(C(=O)OCc2ccccc2)n1 (stereo not given)
inactive: dose: 100.0 mg/kg/injection, schedule: Q01DX001 (ip), vehicle: saline 99 % of control | dose: 200.0 mg/kg/injection, schedule: Q01DX001 (ip), vehicle: saline 95 % of control | dose: 400.0 mg/kg/injection, schedule: Q01DX001 (ip), vehicle: saline 88 % of control

COC1=CC(=O)c2c(O)cc(OC)c(O)c2C1=O
inactive: dose: 1.25 mg/kg/injection, schedule: Q01DX009 (ip), vehicle: saline + alcohol 104 % of control | dose: 1.25 mg/kg/injection, schedule: Q01DX009 (ip), vehicle: saline with Tween-80 117 % of control | dose: 2.5 mg/kg/injection, schedule: Q01DX009 (ip), vehicle: saline + alcohol 104 % of control | dose: 2.5 mg/kg/injection, schedule: Q01DX009 (ip), vehicle: saline with Tween-80 115 % of control | dose: 5.0 mg/kg/injection, schedule: Q01DX009 (ip), vehicle: saline + alcohol 104 % of control | dose: 5.0 mg/kg/injection, schedule: Q01DX009 (ip), vehicle: saline with Tween-80 110 % of control | dose: 10.0 mg/kg/injection, schedule: Q01DX009 (ip), vehicle: saline + alcohol 106 % of control | dose: 10.0 mg/kg/injection, schedule: Q01DX009 (ip), vehicle: saline with Tween-80 110 % of control | dose: 20.0 mg/kg/injection, schedule: Q01DX009 (ip), vehicle: saline + alcohol 106 % of control | [12] 106 % of control

O=c1c(-c2ccc(O)cc2)coc2c(C3OC(CO)C(O)C(O)C3O)c(O)ccc12 (stereo not given)
inactive: [4] 104 % of control | [5] 101 % of control | [6] 93 % of control

O=C(O)c1ccc(OCCOc2ccccc2)c(Cl)c1
inactive: [7] 98 % of control | [8] 95 % of control | dose: 240.0 mg/kg/injection, schedule: Q01DX005 (ip), vehicle: saline with Tween-80 93 % of control

O=C1OC(=O)c2ncccc21
inactive: dose: 6.25 mg/kg/injection, schedule: Q01DX009 (ip), vehicle: saline with Tween-80 101 % of control | [9] 96 % of control | [10] 101 % of control | [11] 111 % of control

Cc1ccc2c(c1)nc1cc3c(cc1n2C1CCCCC1)c(Cl)c(=O)c1ccccc13
inactive: [11] 92 % of control | [13] 92 % of control | [14] 98 % of control

COC(=O)c1c(C(=O)OC)c(-c2ccc(Cl)c(Cl)c2)n2c1CCC2
inactive: [13] 87 % of control | [14] 89 % of control | dose: 400.0 mg/kg/injection, schedule: Q01DX009 (ip), vehicle: saline with Tween-80 88 % of control

O=C1c2c3c(c4c(c2C(=O)c2c5c(c6c(c21)CCC6)CCC5)CCCC4)CCCC3
inactive: [12] 100 % of control | dose: 40.0 mg/kg/injection, schedule: Q01DX009 (ip), vehicle: saline with Tween-80 99 % of control | dose: 80.0 mg/kg/injection, schedule: Q01DX009 (ip), vehicle: saline with Tween-80 93 % of control

Cc1cc2c(C(C)C)c(O)c(O)c(C=Nc3ccc(C(=O)NCC(=O)O)cc3)c2c(O)c1-c1c(C)cc2c(C(C)C)c(O)c(O)c(C=Nc3ccc(C(=O)NCC(=O)O)cc3)c2c1O
inactive: [4] 94 % of control | [5] 100 % of control

C=Cc1c2[n-]c(c1C)/C=c1\[n-]/c(c(C)c1C=C)=C\c1[n-]c(c(CCC(=O)O)c1C)/C=c1\[n-]/c(c(C)c1CCC(=O)O)=C\2.[Pt+4]
inactive: dose: 50.0 mg/kg/injection, schedule: Q04DX002 (ip), vehicle: saline 89 % of control | dose: 100.0 mg/kg/injection, schedule: Q04DX002 (ip), vehicle: saline 100 % of control | dose: 200.0 mg/kg/injection, schedule: Q04DX002 (ip), vehicle: saline 97 % of control
